Like-named read-outs stand apart in the source and are kept apart here.
Columns and labels:
Assay in all cases: selectivity profiling in a panel of 340 wild-type kinases (Reaction Biology Europe)
Format in all cases: binding
340 wild-type kinases [1] = target: T1, 340 wild-type kinases (Homo sapiens, UniProt P06213)
T1 construct: purchased Reaction Biology Europe

340 wild-type kinases [2] = target: T2, 340 wild-type kinases (Homo sapiens, UniProt P49336)
T2 construct: purchased Reaction Biology Europe

340 wild-type kinases [3] = target: T3, 340 wild-type kinases (Homo sapiens, UniProt Q07912)
T3 construct: purchased Reaction Biology Europe

340 wild-type kinases [4] = target: T4, 340 wild-type kinases (Homo sapiens, UniProt Q12851)
T4 construct: purchased Reaction Biology Europe
T4 sequence (Q12851 1-820): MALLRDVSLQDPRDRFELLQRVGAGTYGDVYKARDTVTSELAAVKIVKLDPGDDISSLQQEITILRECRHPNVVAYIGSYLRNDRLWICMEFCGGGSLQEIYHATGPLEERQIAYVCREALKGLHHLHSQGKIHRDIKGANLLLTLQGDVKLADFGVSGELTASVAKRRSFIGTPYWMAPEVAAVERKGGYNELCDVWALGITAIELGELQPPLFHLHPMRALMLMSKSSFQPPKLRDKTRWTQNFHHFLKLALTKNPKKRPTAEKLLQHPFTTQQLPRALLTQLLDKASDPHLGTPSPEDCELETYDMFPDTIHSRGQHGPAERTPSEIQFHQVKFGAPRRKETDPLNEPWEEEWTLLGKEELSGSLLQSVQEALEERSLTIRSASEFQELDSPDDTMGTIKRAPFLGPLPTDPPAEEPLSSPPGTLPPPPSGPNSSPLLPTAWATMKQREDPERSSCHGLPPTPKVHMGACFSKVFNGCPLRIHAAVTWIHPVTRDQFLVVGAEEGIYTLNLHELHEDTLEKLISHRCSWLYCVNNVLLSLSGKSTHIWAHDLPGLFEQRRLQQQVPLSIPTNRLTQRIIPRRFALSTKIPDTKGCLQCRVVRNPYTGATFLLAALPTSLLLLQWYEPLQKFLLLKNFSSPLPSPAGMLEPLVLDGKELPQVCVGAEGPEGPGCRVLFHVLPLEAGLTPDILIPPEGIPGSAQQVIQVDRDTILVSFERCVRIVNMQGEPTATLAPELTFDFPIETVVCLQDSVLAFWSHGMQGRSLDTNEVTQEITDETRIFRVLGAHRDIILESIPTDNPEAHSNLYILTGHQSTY

340 wild-type kinases [5] = target: T5, 340 wild-type kinases (Homo sapiens, UniProt Q14004)
T5 construct: purchased Reaction Biology Europe

340 wild-type kinases [6] = target: T6, 340 wild-type kinases (Homo sapiens, UniProt Q15831)
T6 construct: purchased Reaction Biology Europe
T6 sequence (Q15831 1-433): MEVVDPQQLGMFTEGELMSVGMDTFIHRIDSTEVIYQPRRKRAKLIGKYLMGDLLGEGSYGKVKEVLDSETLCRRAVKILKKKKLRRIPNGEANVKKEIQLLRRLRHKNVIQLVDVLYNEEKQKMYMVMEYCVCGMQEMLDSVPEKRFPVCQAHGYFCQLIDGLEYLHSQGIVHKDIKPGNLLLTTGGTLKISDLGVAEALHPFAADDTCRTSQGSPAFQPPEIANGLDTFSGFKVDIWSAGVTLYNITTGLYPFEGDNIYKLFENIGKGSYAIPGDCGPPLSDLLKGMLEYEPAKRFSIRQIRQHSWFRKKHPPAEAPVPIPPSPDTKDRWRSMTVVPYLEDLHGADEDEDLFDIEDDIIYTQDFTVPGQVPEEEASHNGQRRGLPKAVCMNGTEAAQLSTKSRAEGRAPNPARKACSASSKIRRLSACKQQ

340 wild-type kinases [7] = target: T7, 340 wild-type kinases (Homo sapiens, UniProt Q9HCP0)
T7 construct: purchased Reaction Biology Europe

340 wild-type kinases [8] = target: T8, 340 wild-type kinases (Homo sapiens, UniProt Q9UM73)
T8 construct: purchased Reaction Biology Europe

[9] = read-out: CDK13/CycK residual activity

T2 sequence (P49336 whole entry): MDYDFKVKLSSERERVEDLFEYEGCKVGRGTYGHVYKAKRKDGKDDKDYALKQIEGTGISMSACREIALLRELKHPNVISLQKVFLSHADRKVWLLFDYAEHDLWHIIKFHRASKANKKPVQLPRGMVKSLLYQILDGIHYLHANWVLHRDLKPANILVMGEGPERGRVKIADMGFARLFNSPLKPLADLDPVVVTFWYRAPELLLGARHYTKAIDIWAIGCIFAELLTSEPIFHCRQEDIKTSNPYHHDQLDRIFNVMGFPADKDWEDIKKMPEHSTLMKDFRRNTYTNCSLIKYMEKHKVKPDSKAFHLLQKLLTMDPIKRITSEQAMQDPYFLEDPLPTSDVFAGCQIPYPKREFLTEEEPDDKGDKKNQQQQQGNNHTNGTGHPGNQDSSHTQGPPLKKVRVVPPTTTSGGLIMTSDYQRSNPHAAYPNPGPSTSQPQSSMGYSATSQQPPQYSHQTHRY
T1 sequence (P06213 28-1382): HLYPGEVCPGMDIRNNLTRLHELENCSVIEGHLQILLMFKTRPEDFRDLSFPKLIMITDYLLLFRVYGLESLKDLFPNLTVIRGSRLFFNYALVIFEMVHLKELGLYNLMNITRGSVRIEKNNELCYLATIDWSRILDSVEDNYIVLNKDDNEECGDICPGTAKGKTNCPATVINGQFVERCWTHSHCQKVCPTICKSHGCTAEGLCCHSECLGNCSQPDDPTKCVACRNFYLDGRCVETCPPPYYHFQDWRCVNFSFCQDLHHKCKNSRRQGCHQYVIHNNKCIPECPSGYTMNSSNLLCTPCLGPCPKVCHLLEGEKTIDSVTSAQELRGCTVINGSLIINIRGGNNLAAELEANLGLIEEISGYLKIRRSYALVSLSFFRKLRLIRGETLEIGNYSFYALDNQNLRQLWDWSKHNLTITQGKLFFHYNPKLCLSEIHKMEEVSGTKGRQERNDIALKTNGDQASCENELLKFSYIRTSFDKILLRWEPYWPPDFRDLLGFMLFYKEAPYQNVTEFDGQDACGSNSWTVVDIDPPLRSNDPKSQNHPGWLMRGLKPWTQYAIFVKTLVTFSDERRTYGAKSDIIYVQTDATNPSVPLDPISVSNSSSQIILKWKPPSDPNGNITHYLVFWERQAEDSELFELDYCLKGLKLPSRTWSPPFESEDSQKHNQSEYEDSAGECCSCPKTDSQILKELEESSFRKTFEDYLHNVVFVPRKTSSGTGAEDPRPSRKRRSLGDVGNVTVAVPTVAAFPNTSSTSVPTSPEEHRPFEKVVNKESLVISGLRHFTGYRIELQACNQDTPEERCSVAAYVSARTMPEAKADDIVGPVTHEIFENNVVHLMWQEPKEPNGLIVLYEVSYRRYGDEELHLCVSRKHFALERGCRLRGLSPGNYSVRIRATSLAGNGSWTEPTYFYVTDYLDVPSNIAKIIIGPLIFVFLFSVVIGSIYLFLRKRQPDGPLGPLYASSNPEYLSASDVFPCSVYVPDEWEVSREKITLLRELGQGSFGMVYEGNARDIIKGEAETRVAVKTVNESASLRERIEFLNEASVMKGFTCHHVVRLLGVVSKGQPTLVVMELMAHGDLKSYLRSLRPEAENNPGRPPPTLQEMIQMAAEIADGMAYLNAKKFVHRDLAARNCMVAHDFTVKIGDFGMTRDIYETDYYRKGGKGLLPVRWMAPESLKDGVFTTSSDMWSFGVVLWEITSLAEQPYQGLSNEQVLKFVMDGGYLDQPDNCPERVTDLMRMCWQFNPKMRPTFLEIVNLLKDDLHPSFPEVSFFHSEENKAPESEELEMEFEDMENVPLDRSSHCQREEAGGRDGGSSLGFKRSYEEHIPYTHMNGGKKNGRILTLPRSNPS
T8 sequence (Q9UM73 19-1620): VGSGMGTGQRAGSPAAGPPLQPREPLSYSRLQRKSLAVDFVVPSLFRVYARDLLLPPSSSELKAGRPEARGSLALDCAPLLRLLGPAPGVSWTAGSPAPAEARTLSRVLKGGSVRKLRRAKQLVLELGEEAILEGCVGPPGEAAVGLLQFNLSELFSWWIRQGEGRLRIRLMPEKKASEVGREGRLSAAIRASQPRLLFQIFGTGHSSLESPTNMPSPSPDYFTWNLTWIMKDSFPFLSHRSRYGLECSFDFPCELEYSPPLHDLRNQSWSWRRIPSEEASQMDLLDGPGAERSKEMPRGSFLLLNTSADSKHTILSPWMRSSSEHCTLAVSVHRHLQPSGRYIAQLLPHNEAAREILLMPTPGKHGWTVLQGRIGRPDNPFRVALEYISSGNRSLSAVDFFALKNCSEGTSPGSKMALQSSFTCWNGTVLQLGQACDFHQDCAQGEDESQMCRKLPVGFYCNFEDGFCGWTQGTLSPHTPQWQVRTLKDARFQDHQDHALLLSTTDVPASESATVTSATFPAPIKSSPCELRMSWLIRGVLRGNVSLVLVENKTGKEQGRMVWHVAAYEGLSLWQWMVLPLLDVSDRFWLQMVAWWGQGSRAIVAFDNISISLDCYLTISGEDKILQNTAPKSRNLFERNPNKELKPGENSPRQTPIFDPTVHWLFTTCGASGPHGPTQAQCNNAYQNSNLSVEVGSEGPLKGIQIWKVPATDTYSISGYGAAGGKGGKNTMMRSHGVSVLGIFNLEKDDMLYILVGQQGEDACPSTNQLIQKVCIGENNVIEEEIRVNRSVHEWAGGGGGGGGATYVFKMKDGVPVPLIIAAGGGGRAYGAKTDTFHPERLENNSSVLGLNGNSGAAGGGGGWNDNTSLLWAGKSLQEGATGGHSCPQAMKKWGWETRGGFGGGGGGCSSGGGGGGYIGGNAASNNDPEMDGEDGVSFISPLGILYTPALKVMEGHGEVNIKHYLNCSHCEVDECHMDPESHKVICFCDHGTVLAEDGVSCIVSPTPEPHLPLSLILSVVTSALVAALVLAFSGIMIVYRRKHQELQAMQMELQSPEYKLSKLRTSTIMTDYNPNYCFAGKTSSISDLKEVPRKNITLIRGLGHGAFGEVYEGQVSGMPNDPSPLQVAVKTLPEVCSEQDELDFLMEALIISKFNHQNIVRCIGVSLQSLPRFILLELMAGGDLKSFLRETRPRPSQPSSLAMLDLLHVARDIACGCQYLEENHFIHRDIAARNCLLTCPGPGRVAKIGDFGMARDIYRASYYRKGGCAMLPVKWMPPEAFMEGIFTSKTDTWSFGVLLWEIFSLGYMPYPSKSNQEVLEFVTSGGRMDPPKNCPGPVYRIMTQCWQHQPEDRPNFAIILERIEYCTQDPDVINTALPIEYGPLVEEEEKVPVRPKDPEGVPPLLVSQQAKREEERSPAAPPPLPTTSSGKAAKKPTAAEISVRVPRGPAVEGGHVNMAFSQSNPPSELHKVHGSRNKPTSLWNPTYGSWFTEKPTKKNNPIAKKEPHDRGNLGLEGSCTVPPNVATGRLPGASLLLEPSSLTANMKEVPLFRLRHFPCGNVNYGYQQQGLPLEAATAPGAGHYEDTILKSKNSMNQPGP
T5 sequence (Q14004 whole entry): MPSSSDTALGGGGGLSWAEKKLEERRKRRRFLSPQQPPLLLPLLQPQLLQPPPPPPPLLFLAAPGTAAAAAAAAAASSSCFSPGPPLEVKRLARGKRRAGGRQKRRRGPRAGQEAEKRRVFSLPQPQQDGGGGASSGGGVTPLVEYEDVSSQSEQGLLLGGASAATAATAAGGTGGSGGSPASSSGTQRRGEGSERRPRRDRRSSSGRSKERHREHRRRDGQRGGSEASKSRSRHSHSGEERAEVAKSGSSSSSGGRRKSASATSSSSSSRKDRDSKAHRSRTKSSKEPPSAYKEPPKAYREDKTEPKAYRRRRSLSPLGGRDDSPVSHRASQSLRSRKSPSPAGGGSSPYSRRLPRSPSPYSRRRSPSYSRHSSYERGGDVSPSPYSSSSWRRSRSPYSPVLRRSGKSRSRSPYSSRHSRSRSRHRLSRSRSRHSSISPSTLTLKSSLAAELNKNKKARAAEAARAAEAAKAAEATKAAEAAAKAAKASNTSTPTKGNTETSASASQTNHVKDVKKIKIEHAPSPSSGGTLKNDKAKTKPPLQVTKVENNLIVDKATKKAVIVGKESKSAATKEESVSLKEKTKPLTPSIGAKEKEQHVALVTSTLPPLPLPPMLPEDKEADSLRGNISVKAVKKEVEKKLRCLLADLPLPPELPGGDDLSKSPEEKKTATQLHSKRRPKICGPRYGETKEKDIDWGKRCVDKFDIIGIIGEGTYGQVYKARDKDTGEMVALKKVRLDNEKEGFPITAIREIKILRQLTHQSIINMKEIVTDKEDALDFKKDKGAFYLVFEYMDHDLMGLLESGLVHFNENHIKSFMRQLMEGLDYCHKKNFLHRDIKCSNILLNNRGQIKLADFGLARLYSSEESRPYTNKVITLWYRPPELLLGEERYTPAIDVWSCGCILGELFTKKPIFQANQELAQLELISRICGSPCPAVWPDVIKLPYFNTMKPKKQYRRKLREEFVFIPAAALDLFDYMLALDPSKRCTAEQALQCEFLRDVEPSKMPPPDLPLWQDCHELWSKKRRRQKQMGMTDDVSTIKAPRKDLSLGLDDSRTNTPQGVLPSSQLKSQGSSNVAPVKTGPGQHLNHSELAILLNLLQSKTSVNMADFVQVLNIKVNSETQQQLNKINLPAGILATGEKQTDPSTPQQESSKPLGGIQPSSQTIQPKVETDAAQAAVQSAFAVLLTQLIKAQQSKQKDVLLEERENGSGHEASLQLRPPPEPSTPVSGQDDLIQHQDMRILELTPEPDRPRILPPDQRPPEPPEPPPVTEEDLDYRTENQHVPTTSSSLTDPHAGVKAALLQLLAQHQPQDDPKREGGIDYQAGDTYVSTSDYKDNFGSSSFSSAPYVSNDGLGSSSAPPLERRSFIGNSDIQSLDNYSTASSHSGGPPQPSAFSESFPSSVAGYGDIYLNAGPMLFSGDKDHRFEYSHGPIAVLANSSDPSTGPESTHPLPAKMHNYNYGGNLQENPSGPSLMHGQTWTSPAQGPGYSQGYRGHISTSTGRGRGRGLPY

Structure (SMILES): CNC(=O)c1ccc2c(c1)C(=O)c1ccc(Nc3ccc(F)c(NC(=O)C4CC4)c3)cc1CC2 [Compound 2015]
- remaining activity at 0.2 µM (340 wild-type kinases [1]; 0.2 µM 2015, read-out: INSR residual activity): 99.9%
- remaining activity at 1 µM (340 wild-type kinases [1]; 1 µM 2015, read-out: INSR residual activity): 99.3%
- remaining activity at 0.2 µM (340 wild-type kinases [1]; INSR, 0.2 µM, read-out: residual activity): 99.9%
- remaining activity at 1 µM (340 wild-type kinases [1]; INSR, 1 µM, read-out: residual activity): 99.3%
- remaining activity at 0.2 µM (340 wild-type kinases [2]; 0.2 µM 2015, read-out: CDK8/CycC residual activity): 92.5%
- remaining activity at 1 µM (340 wild-type kinases [2]; 1 µM 2015, read-out: CDK8/CycC residual activity): 85.2%
- remaining activity at 0.2 µM (340 wild-type kinases [2]; CDK8/CycC, 0.2 µM, read-out: residual activity): 92.5%
- remaining activity at 1 µM (340 wild-type kinases [2]; CDK8/CycC, 1 µM, read-out: residual activity): 85.2%
- remaining activity at 0.2 µM (340 wild-type kinases [3]; 0.2 µM 2015, read-out: ACK1 residual activity): 110%
- remaining activity at 1 µM (340 wild-type kinases [3]; 1 µM 2015, read-out: ACK1 residual activity): 108%
- remaining activity at 0.2 µM (340 wild-type kinases [3]; ACK1, 0.2 µM, read-out: residual activity): 110%
- remaining activity at 1 µM (340 wild-type kinases [3]; ACK1, 1 µM, read-out: residual activity): 108%
- remaining activity at 0.2 µM (340 wild-type kinases [4]; 0.2 µM 2015, read-out: MAP4K2 residual activity): 109%
- remaining activity at 1 µM (340 wild-type kinases [4]; 1 µM 2015, read-out: MAP4K2 residual activity): 104%
- remaining activity at 0.2 µM (340 wild-type kinases [4]; MAP4K2, 0.2 µM, read-out: residual activity): 109%
- remaining activity at 1 µM (340 wild-type kinases [4]; MAP4K2, 1 µM, read-out: residual activity): 104%
- remaining activity at 0.2 µM (340 wild-type kinases [5]; [9]): 87.3%
- remaining activity at 1 µM (340 wild-type kinases [5]; [9]): 86.5%
- remaining activity at 0.2 µM (340 wild-type kinases [5]; read-out: residual activity): 87.3%
- remaining activity at 1 µM (340 wild-type kinases [5]; read-out: residual activity): 86.5%
- remaining activity at 0.2 µM (340 wild-type kinases [6]; 0.2 µM 2015, read-out: LKB1/MO25a/STRADa residual activity): 115%
- remaining activity at 1 µM (340 wild-type kinases [6]; 1 µM 2015, read-out: LKB1/MO25a/STRADa residual activity): 91.6%
- remaining activity at 0.2 µM (340 wild-type kinases [6]; LKB1/MO25a/STRADa, 0.2 µM, read-out: residual activity): 115%
- remaining activity at 1 µM (340 wild-type kinases [6]; LKB1/MO25a/STRADa, 1 µM, read-out: residual activity): 91.6%
- remaining activity at 0.2 µM (340 wild-type kinases [7]; 0.2 µM 2015, read-out: CK1gamma1 residual activity): 115%
- remaining activity at 1 µM (340 wild-type kinases [7]; 1 µM 2015, read-out: CK1gamma1 residual activity): 107%
- remaining activity at 0.2 µM (340 wild-type kinases [7]; CK1gamma1, 0.2 µM, read-out: residual activity): 115%
- remaining activity at 1 µM (340 wild-type kinases [7]; CK1gamma1, 1 µM, read-out: residual activity): 107%
- remaining activity at 0.2 µM (340 wild-type kinases [8]; 0.2 µM 2015, read-out: ALK residual activity): 95.3%
- remaining activity at 1 µM (340 wild-type kinases [8]; 1 µM 2015, read-out: ALK residual activity): 86.8%
- remaining activity at 0.2 µM (340 wild-type kinases [8]; ALK, 0.2 µM, read-out: residual activity): 95.3%
- remaining activity at 1 µM (340 wild-type kinases [8]; ALK, 1 µM, read-out: residual activity): 86.8%
